Test results reported in patent publication US11479556B1, “Bifunctional compounds for degrading BTK via ubiquitin proteosome pathway” (NURIX THERAPEUTICS, INC., priority 2018, dated 2022).

Experiments:
BTK = target: T1, BTK (Homo sapiens, UniProt Q06187); test: Cellular BTK HTRF assay (BTK degradation) in TMD8 cells; assay type: cell-based; details: four hours incubation, Total-BTK HTRF relative to DMSO-treated cells
T1 construct: endogenous in cells; host or cells: TMD8 cells
Method in brief: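 TMD8 cells were treated with compounds (final DMSO <0.200) for four hours at 37° C, 5% CO2, then lysed for 30 minutes. Total BTK was measured by two-antibody HTRF, taking the 665/620 nm ratio with background subtracted and expressed relative to DMSO-treated cells. DC50 came from four-parameter nonlinear regression.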

Aiolos = target: T2, Aiolos (Homo sapiens, UniProt Q96SW2+Q9UKT9); test: Aiolos degradation flow cytometry assay in human PBMCs (T cells); assay type: cell-based; details: 24 hours, T cells (CD3+CD20-), read-out: Aiolos T Cell DC50
T2 construct: Frozen human peripheral blood mononuclear cells (PBMCs) were thawed and treated with DMSO or compound for 24 hours; endogenous in cells; host or cells: human PBMCs (T cells gated CD3+CD20-)
Protocol: Example 67: Aiolos Degradation Assay
Frozen human peripheral blood mononuclear cells (PBMCs) were thawed and treated with DMSO or compound for 24 hours and then fixed and permeabilized using a Foxp3/Transcription Factor Fixation/Permeabilization Kit (eBioscience, 00-5523). Cells were stained with fluorophore-conjugated antibodies against CD20 (Biolegend 302330), CD3 (BD Pharmingen 552127), and Aiolos (Biolegend 371106). An additional set of DMSO-treated PBMCs was stained for CD20, CD3, and an AlexaFluor 647-conjugated mouse IgG1 isotype control antibody (Biolegend 400136). Stained cells were analyzed using an Attune NxT Acoustic Focusing Flow Cytometer (Thermo-Fisher A29004), and data was analyzed using FlowJo (v10.5.3) and GraphPad Prism (v7.00) software. Single lymphocytes were gated for B cells (CD20+CD3−) and T cells (CD3+CD20−), and the geometric mean fluorescence intensity (MFI) of Aiolos was calculated for each population. The MFI of the isotype control was calculated for each population and used to quantify background staining. Percent Aiolos degradation was calculated for each compound-treated sample using the following equation: […]
Four-parameter non-linear regressions were performed in GraphPad Prism 7.02 to obtain DC50 values. Aiolos T Cell DC50 values are provided in Table 4, wherein A<10.0 nM, 10.0 nM≤B≤1000 nM, and 1000 nM<C.

T1 sequence (Q06187 whole entry): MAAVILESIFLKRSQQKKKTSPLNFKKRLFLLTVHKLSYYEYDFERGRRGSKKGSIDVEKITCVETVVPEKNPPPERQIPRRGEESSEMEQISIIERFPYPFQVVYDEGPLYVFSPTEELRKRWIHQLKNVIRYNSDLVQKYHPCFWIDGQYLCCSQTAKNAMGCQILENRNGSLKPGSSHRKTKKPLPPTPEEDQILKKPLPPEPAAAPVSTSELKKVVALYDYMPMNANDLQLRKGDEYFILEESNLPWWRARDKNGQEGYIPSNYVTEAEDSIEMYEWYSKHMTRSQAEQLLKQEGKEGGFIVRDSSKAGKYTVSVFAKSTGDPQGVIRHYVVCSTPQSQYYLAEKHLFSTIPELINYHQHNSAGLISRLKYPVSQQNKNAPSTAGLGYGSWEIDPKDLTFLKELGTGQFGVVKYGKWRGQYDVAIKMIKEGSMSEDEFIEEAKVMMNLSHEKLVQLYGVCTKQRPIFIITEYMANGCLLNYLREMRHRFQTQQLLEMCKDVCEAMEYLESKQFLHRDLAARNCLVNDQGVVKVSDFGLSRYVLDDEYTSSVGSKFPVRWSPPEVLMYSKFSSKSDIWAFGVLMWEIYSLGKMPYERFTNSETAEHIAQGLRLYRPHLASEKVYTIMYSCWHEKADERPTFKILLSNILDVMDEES
T2 sequence (Q9UKT9 whole entry): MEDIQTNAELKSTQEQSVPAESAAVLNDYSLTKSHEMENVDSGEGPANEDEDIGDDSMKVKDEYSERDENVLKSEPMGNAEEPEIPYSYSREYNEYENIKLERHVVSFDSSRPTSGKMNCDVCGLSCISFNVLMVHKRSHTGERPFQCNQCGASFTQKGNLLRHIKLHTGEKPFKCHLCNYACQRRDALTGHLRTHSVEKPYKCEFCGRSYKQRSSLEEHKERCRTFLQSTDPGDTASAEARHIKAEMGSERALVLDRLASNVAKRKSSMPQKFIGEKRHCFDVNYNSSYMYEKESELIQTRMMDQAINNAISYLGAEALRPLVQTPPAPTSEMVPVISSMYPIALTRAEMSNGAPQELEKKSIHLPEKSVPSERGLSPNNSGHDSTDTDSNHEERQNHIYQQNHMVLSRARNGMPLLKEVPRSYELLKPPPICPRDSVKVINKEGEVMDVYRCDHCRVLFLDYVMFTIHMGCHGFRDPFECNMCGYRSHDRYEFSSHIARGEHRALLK
T2 sequence (Q96SW2 whole entry): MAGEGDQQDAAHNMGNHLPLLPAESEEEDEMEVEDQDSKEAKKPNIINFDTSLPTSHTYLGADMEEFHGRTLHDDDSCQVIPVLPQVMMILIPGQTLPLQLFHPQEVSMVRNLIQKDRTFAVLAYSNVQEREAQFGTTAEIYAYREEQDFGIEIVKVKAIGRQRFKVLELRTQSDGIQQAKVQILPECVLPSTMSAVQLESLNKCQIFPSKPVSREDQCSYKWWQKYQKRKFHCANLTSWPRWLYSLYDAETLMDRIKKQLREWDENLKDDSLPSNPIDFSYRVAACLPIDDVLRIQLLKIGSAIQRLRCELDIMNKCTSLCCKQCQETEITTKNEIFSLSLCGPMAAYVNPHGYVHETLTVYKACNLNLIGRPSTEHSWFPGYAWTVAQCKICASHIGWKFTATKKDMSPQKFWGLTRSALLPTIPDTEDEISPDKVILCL
T2 sequence (Q16531 whole entry partner): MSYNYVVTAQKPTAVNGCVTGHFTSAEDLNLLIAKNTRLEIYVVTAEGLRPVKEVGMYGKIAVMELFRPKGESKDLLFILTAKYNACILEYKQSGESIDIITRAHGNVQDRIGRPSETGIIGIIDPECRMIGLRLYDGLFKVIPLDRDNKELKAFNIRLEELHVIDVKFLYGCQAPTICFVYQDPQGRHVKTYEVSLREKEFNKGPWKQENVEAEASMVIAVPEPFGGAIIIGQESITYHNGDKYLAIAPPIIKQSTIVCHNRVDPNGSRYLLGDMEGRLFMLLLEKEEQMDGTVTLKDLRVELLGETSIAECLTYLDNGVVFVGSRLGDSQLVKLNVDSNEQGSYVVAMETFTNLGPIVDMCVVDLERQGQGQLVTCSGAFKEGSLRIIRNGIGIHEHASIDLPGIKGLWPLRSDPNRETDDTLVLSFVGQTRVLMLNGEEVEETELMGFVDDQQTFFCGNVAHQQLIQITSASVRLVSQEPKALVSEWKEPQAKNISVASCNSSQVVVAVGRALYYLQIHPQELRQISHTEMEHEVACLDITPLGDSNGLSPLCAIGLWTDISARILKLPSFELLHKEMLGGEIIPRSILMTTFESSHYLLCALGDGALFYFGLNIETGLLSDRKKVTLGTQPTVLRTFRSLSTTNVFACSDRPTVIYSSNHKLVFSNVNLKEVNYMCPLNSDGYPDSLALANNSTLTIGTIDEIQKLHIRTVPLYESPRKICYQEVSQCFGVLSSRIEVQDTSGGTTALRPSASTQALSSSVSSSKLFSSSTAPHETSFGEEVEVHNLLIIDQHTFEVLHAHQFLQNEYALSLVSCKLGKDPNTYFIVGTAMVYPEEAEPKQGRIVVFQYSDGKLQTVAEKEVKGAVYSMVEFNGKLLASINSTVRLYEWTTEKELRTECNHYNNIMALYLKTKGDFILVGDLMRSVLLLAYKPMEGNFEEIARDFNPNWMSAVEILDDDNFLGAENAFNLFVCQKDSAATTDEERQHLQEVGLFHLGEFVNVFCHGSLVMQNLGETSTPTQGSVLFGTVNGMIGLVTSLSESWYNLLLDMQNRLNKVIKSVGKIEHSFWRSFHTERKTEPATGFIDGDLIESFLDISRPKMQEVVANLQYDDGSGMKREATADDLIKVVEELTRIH

| SMILES | DC50 (BTK) [nM] | DC50 (Aiolos) [nM] |
| --- | --- | --- |
| CN1CCN([C@@H]2CCCN(c3cnc(C(N)=O)c(Nc4ccc5c(c4)CCN(C4CN(c6ccc7c(c6)C(=O)N(C6CCC(=O)NC6=O)C7=O)C4)C5)n3)C2)C1=O (stereo partly drawn) [Compound 30] | 5 to 15 | < 10 |
| CN1CCN([C@@H]2CCCN(c3cnc(C(N)=O)c(Nc4ccc(C5CCN(C(=O)CCOCCNc6cccc7c6C(=O)N(C6CCC(=O)NC6=O)C7=O)CC5)cc4)n3)C2)C1=O (stereo partly drawn) [Compound 25] | 5 to 15 | < 10 |
| CN1CCN([C@@H]2CCCN(c3cnc(C(N)=O)c(Nc4ccc(C5CCN(CC6CCN(c7ccc(OC8CCC(=O)NC8=O)cn7)CC6)CC5)cc4)n3)C2)C1=O (stereo partly drawn) [Compound 165] | 5 to 15 |  |
| CN1CCN([C@@H]2CCCN(c3cnc(C(N)=O)c(Nc4ccc(CCCNc5ccc6c(c5)C(=O)N(C5CCC(=O)NC5=O)C6=O)cc4)n3)C2)C1=O (stereo partly drawn) [Compound 65] | > 15 |  |
| CN1CCN([C@@H]2CCCN(c3cnc(C(N)=O)c(Nc4ccc(C5(C)CCN(C(=O)CCCc6nnc(Nc7cccc8c7CN(C7CCC(=O)NC7=O)C8=O)o6)CC5)cc4)n3)C2)C1=O (stereo partly drawn) [Compound 7] | > 15 |  |
| CN1CCN([C@@H]2CCCN(c3cnc(C(N)=O)c(Nc4ccc(C5(C)CCN(CCOCCCc6cccc7c6C(=O)N(C6CCC(=O)NC6=O)C7=O)CC5)cc4)n3)C2)C1=O (stereo partly drawn) [Compound 18] | 5 to 15 |  |
| CN1CCN([C@@H]2CCCN(c3cnc(C(N)=O)c(Nc4ccc(C5(C)CCN(CCCCc6cccc7c6CN(C6CCC(=O)NC6=O)C7=O)CC5)cc4)n3)C2)C1=O (stereo partly drawn) [Compound 21] | 5 to 15 |  |
| CN1CCN([C@@H]2CCCN(c3cnc(C(N)=O)c(Nc4ccc(N5CC[C@@H]6CCN(Cc7ccc8c(c7)C(=O)N(N7CCC(=O)NC7=O)C8=O)C[C@@H]6C5)cc4)n3)C2)C1=O [Compound 95] | 5 to 15 |  |
| CN1CCN([C@H]2CCCN(c3cnc(C(N)=O)c(Nc4ccc(N5CCC6(CC5)CN(c5cccc7c5C(=O)N(C5CCC(=O)NC5=O)C7=O)C6)cc4)n3)C2)C1=O (stereo partly drawn) [Compound 97] | > 15 |  |
| CN1CCN([C@H]2CCCN(c3cnc(C(N)=O)c(Nc4ccc(N5CCC6(CCCN(Cc7ccc8c(c7)C(=O)N(N7CCC(=O)NC7=O)C8=O)C6)CC5)cc4)n3)C2)C1=O [Compound 108] | 5 to 15 |  |
| CN1CCN([C@@H]2CCCN(c3cnc(C(N)=O)c(Nc4ccc(C5(C)CCN(c6ccc7c(c6)C(=O)N(C6CCC(=O)NC6=O)C7=O)CC5)cc4)n3)C2)C1=O (stereo partly drawn) [Compound 58] | 5 to 15 |  |
| CN1CCN([C@H]2CCCN(c3cnc(C(N)=O)c(Nc4ccc(C5(C)CCN([C@H]6C[C@@H](Nc7cccc8c7C(=O)N(C7CCC(=O)NC7=O)C8=O)C6)CC5)cc4)n3)C2)C1=O (stereo partly drawn) [Compound 102] | < 5 |  |
| NC(=O)c1ncc(N2CCC(CO)CC2)nc1Nc1ccc(C2CCN(C[C@@H]3CCN(c4ccc5c(c4)C(=O)N(C4CCC(=O)NC4=O)C5=O)C3)CC2)cc1 (stereo partly drawn) [Compound 160] | < 5 |  |
| CN1CCN([C@@H]2CCCN(c3cnc(C(N)=O)c(Nc4ccc(N5CCN(C[C@H]6CCN(c7ccc8c(c7)C(=O)N(C7CCC(=O)NC7=O)C8=O)C6)CC5)cc4)n3)C2)C1=O (stereo partly drawn) [Compound 42] | < 5 |  |
| Cn1c(N2CCC(CN3CC(c4ccc(Nc5nc(N6CCC[C@H](N7CCCC7=O)C6)cnc5C(N)=O)cc4)C3)CC2)nn(C2CCC(=O)NC2=O)c1=O (stereo partly drawn) [Compound 141] | < 5 |  |
| NC(=O)c1ncc(N2CCC[C@@H](CO)C2)nc1Nc1ccc(C2CCN(CC3CCN(c4ccc5c(=O)n(C6CCC(=O)NC6=O)ccc5c4)CC3)CC2)cc1 (stereo partly drawn) [Compound 172] | < 5 |  |
| CN1CCN([C@@H]2CCCN(c3cnc(C(N)=O)c(Nc4ccc(N5CCC6(CCN(CCCCc7cccc8c7CN(C7CCC(=O)NC7=O)C8=O)CC6)CC5)cc4)n3)C2)C1=O (stereo partly drawn) [Compound 56] | < 5 |  |
| NC(=O)c1ncc(N2CCCCC2)nc1Nc1ccc(C2CCN(CC3CCN(c4ncc(C(=O)NC5CCC(=O)NC5=O)o4)CC3)CC2)cc1 (stereo not drawn) [Compound 191] | 5 to 15 |  |
| CN1CCN([C@@H]2CCCN(c3cnc(C(N)=O)c(Nc4cccc(NC(=O)[C@H]5C[C@@H](OCCCc6cccc7c6C(=O)N(C6CCC(=O)NC6=O)C7=O)C5)c4)n3)C2)C1=O (stereo partly drawn) [Compound 63] | > 15 |  |
| NC(=O)c1ncc(N2CCC[C@@H](CO)C2)nc1Nc1ccc(C2CCN(C[C@@H]3CCN(c4ccc5c(c4)C(=O)N(C4CCC(=O)NC4=O)C5=O)C3)CC2)cc1 (stereo partly drawn) [Compound 193] | < 5 |  |

Results, then the compound that gave them:

| DC50 (BTK) [nM] | DC50 (Aiolos) [nM] | SMILES |
| --- | --- | --- |
| < 5 | > 1000 | CN1CCN([C@@H]2CCCN(c3cnc(C(N)=O)c(Nc4ccc(C5CCN(CC6CCN(c7ccc(OC8CCC(=O)NC8=O)cn7)CC6)CC5)cc4)n3)C2)C1=O (stereo partly drawn) [Compound 166] |
| < 5 | 10 to 1000 | CN1CCN([C@@H]2CCCN(c3cnc(C(N)=O)c(Nc4ccc(N5CCN(C[C@@H]6[C@H]7CN(c8ccc9c(c8)C(=O)N(C8CCC(=O)NC8=O)C9=O)C[C@@H]67)CC5)cc4)n3)C2)C1=O (stereo partly drawn) [Compound 38] |
| < 5 | 10 to 1000 | CN1CCN([C@@H]2CCCN(c3cnc(C(N)=O)c(Nc4ccc(N5CC6(C5)CN(c5ccc7c(c5)C(=O)N(C5CCC(=O)NC5=O)C7=O)C6)cc4)n3)C2)C1=O (stereo partly drawn) [Compound 34, 3-((4-(6-(2-(2,6-dioxopiperidin-3-yl)-1,3-dioxoisoindolin-5-yl)-2,6-diazaspiro[3.3]heptan-2-yl)phenyl)amino)-5-((R)-3-(3-methyl-2-oxoimidazolidin-1-yl)piperidin-1-yl)pyrazine-2-carboxamide] |
| < 5 |  | CN1CCN([C@@H]2CCCN(c3cnc(C(N)=O)c(Nc4ccc(N5CCN(C[C@@H]6CCN(c7ccc8c(c7)C(=O)N(C7CCC(=O)NC7=O)C8=O)C6)CC5)cc4)n3)C2)C1=O (stereo partly drawn) [Compound 59] |
| < 5 |  | CN1CCN([C@@H]2CCCN(c3cnc(C(N)=O)c(Nc4ccc(N5CCC6(CC5)CCN(c5ccc7c(c5)C(=O)N(C5CCC(=O)NC5=O)C7=O)CC6)cc4)n3)C2)C1=O (stereo partly drawn) [Compound 55] |
| < 5 |  | CN1CCN([C@@H]2CCCN(c3cnc(C(N)=O)c(Nc4ccc(N5CCN(CCC6CCN(c7ccc8c(c7)C(=O)N(C7CCC(=O)NC7=O)C8=O)CC6)CC5)cc4)n3)C2)C1=O (stereo partly drawn) [Compound 40] |
| < 5 |  | NC(=O)c1ncc(N2CCCCC2)nc1Nc1ccc(C2CCN(CC3CCN(c4ccc5ccn(C6CCC(=O)NC6=O)c(=O)c5c4)CC3)CC2)cc1 (stereo not drawn) [Compound 163] |
| < 5 |  | CN1CCN([C@@H]2CCCN(c3cnc(C(N)=O)c(Nc4ccc(N5CCN(CC6CN(c7ccc8c(c7)C(=O)N(C7CCC(=O)NC7=O)C8=O)C6)CC5)cc4)n3)C2)C1=O (stereo partly drawn) [Compound 82] |
| < 5 |  | NC(=O)c1ncc(N2CCC[C@@H](N3CCCC3=O)C2)nc1Nc1ccc(N2CC(C3CCN(c4ccc5c(c4)C(=O)N(C4CCC(=O)NC4=O)C5=O)CC3)C2)cc1 (stereo partly drawn) [Compound 169] |
| < 5 |  | CN1CCN([C@@H]2CCCN(c3cnc(C(N)=O)c(Nc4ccc(C5(C)CCN(C(=O)CN6CCN(CCCc7cccc8c7CN(C7CCC(=O)NC7=O)C8=O)CC6)CC5)cc4)n3)C2)C1=O (stereo partly drawn) [Compound 20] |
| < 5 |  | NC(=O)c1ncc(N2CCC3(COC3)C2)nc1Nc1ccc(C2CCN(C[C@H]3CCN(c4ccc5c(c4)C(=O)N(C4CCC(=O)NC4=O)C5=O)C3)CC2)cc1 (stereo partly drawn) [Compound 176] |
| < 5 |  | CN1CCN([C@H]2CCCN(c3cnc(C(N)=O)c(Nc4ccc(N5CCN(CC#Cc6ccc7c(c6)C(=O)N(C6CCC(=O)NC6=O)C7)CC5)cc4)n3)C2)C1=O (stereo partly drawn) [Compound 98] |
| < 5 |  | CN1CCN([C@@H]2CCCN(c3cnc(C(N)=O)c(Nc4ccc(C5CCN(CC6CN(c7ccc8c(c7)C(=O)N(C7CCC(=O)NC7=O)C8=O)C6)CC5)cc4)n3)C2)C1=O (stereo partly drawn) [Compound 54] |
| < 5 |  | Cn1c(-c2ccc(N3CCC(CN4CCC(c5ccc(Nc6nc(N7CCC[C@H](N8CCCC8=O)C7)cnc6C(N)=O)cc5)CC4)CC3)cc2)nn(C2CCC(=O)NC2=O)c1=O (stereo partly drawn) [Compound 143] |
| < 5 |  | Cn1c(=O)n(C2CCC(=O)NC2=O)c2ccc(N3CCC(CN4CCC(c5ccc(Nc6nc(N7CCCCC7)cnc6C(N)=O)cc5)CC4)CC3)cc21 (stereo not drawn) [Compound 179] |
| < 5 |  | Cn1cc(Nc2nc(N3CCC[C@@H](N4CCC5(CN(CC6CCN(c7ccc8c(c7)C(=O)N(C7CCC(=O)NC7=O)C8=O)CC6)C5)C4=O)C3)cnc2C(N)=O)cn1 (stereo partly drawn) [Compound 137] |
| < 5 |  | CN1CCN([C@@H]2CCCN(c3cnc(C(N)=O)c(Nc4ccc(C5CCN(C6CN(Cc7ccc8c(c7)CN(C7CCC(=O)NC7=O)C8=O)C6)CC5)cc4)n3)C2)C1=O (stereo partly drawn) [Compound 86] |
| < 5 |  | CN1CCN([C@@H]2CCCN(c3cnc(C(N)=O)c(Nc4ccc(C5(C)CCN(C6CC(Nc7cccc8c7C(=O)N(C7CCC(=O)NC7=O)C8=O)C6)CC5)cc4)n3)C2)C1=O (stereo partly drawn) [Compound 66] |
| < 5 |  | CN1CCN([C@@H]2CCCN(c3cnc(C(N)=O)c(Nc4ccc(N5CC6CN(CC7CN(c8ccc9c(c8)C(=O)N(C8CCC(=O)NC8=O)C9=O)C7)CC6C5)cc4)n3)C2)C1=O (stereo partly drawn) [Compound 91] |
| < 5 |  | CN1CCN([C@H]2CCCN(c3cnc(C(N)=O)c(Nc4ccc(C5CCN(CC6CN(c7ccc(-c8nn(C9CCC(=O)NC9=O)c(=O)n8C)cc7)C6)CC5)cc4)n3)C2)C1=O (stereo partly drawn) [Compound 136] |
